Consider three molecules from patent publication US20120095013A1, “USE OF KMUP-3 FOR MYOCARDIAL INFARCTION” (KAOHSIUNG MEDICAL UNIVERSITY, priority 2010, published 2012).

Assay [1] has as its system MMP-9. Briefly: MMP-9 protein expression in TGF-β-stimulated human cardiac fibroblasts (HCFs). The class given is cell-based. On the procedure: (§1) Human cardiac fibroblasts (HCFs; catalogue number: 306-05f) are purchased from Cell Applications Inc. (San Diego, Calif., USA). The cells are cultured as monolayer in Dulbecco's modified Eagle's medium containing 10% fetal bovine serum at 37° C. in 95% humidity and 5% CO2. Cells are harvested at passage 3-6 for experiment. Before treatment, HCFs are washed twice with serum-free medium and switched to serum-free medium for 24 h. To stimulate MMP-9 expression, the cultures are treated with 10 ng·mL^−1 transforming growth factor-b (TGF-β) for 24 h. HCFs are pretreated with KMUP-3 (10 mmol·L^−1) or in combination with L-NAME (100 mmol·L^−1) for 1 h before addition of 10 ng·mL^−1 TGF-β for 24 h. Each experiment is repeated three times.
(§2) The hearts are sonicated in 50 mmol·L^−1 Tris for 10 s two times and centrifuged at 13,000 rpm at 4° C. for 30 min. The protein concentration of the supernatants is determined by using bovine serum albumin as the standard. The cell extracts are boiled in ratio of 4:1 with sample buffer (100 mmol·L^−1 Tris, pH 6.8, 20% glycerol, 4% SDS, and 0.2% bromophenol blue). Electrophoresis is performed using 10% SDS-polyacrylamide gel electrophoresis and transferred to nitrocellulose membranes (Millipore Corporation, Billerica, Mass., USA). […] The intensity of the bands is quantified by densitometry.

The subject of a further assay is hypertensive rats. As to conditions: Wu et al., 2001, Yeh et al., 2010; cited from earlier work.
For assay [2], the system named is MI rats. Briefly: Cardiac fibrosis by Masson's trichrome staining in MI rats. The class given is in vivo, rat. From the text:
(§3) MI is induced by ligation of the left anterior descending (LAD) coronary artery according to Liang et al., 2006. […] The LAD is ligated with 6.0 silk at 2 mm from the origin, and the wound is closed with primary suture. After the operation, the animals are observed until fully conscious. Sham animals undergo similar thoracotomy and pericardiotomy, except that the ligature around the coronary artery is not tied. Surviving rats are fitted with ALZET osmotic minipumps (Model 2ML4, DURECT Corporation, Cupertino, Calif., USA) immediately after recovery. At this time, most of the rats are still anaesthetized from the previously administered pentobarbital sodium; a further bolus dose of pentobarbital sodium (15 mg·kg^-1) is given if necessary. […] In the treatment group, the minimumps are filled with hydrochloride of KMUP-3 (KMUP-3·HCl; 0.3 mg·kg^-1·day^-1). In the sham and MI groups, the minipumps are filled with saline. Histological analyses are performed to all of the heart. Rats are randomly chosen to be analyzed for area of risk after coronary artery ligature by Evan blue staining as described by Harada et al. (2005). […] Ten sections in each heart are analyzed for the percentage of fibrosis. […] The total LV and infarct area and fibrosis region are measured by an investigator without knowledge of the treatment group using US NIH ImageJ, 1.42q.

Assay [3] relates to TIMP-1. Briefly: Western blot of TIMP-1 protein expression in rat hearts. Type of assay: in vivo. As to conditions: Western blot densitometry, n=9-10, FIG. 5b. For orientation: Immunoblotting shows a protein as a band on a membrane.
Assay [4] relates to TIMP-1. Briefly: TIMP-1 protein expression in TGF-β-stimulated human cardiac fibroblasts (HCFs). The class given is cell-based. The note with it: KMUP-3 10 mmol·L−1, TGF-β 10 ng·mL−1, FIG. 6b. The procedure:
as §1, §2

In assay [5] the test system is MI rats. The experiment in a line: Area of risk (Evans blue) and infarct size (TTC staining) in MI rats. The class given is in vivo, rat.
Text: as §3

In a further assay the test system is eNOS. Briefly: Western blot of eNOS protein expression in rat hearts. The class given is in vivo. As to conditions: Western blot densitometry, versus MI group, FIG. 5c.
Assay [6] has as its system MI rats. Briefly: Cardiac structure and haemodynamics in rats after myocardial infarction (LAD ligation), LV catheter. Type of assay: in vivo, rat. The source says:
Male rats (250-300 g) are provided by the National Laboratory Animal Breeding and Research Center (Taipei, Taiwan) and housed under constant temperature and controlled illumination. Food and water are available ad libitum. MI is induced by ligation of the left anterior descending (LAD) coronary artery according to Liang et al., 2006. […] The LAD is ligated with 6.0 silk at 2 mm from the origin, and the wound is closed with primary suture. After the operation, the animals are observed until fully conscious. Sham animals undergo similar thoracotomy and pericardiotomy, except that the ligature around the coronary artery is not tied. All the animals are administered with s.c. doses of analgesia (ketoprofen; 3 mg·kg^−1) and antibiotics (gentamicin; 0.7 mg·kg^−1) for 2 days. This study was approved by the Animal Care and Use Committee at Kaohsiung Medical University. Surviving rats are fitted with ALZET osmotic minipumps (Model 2ML4, DURECT Corporation, Cupertino, Calif., USA) immediately after recovery. At this time, most of the rats are still anaesthetized from the previously administered pentobarbital sodium; a further bolus dose of pentobarbital sodium (15 mg·kg^−1) is given if necessary. […] In the treatment group, the minimumps are filled with hydrochloride of KMUP-3 (KMUP-3·HCl; 0.3 mg·kg^−1·day^−1). In the sham and MI groups, the minipumps are filled with saline. After echocardiography, a PE-50 catheter is inserted through the right carotid artery to measure the LV systolic pressure (LVSP), LV end-diastolic pressure (LVEDP) and maximum rates of pressure development (LV+dP/dt) and relaxation (LV−dP/dt). […] The hearts are then excised and the atria and right ventricles are dissected out. Sections of the LV are embedded in mounting medium and the remaining tissues are transferred in the liquid nitrogen for further evaluation. Throughout the whole procedure, a further bolus dose of pentobarbital sodium (15 mg·kg^−1) is given if required.

In another assay the test system is aortic smooth muscle. As to conditions: through opening a KATP channel and increasing eNOS; attenuated by glibenclamide; Wu et al., 2005; Lin et al., 2006; cited from earlier work.
The test system of the next assay is phosphodiesterase. The note with it: Wu et al., 2005; Lin et al., 2006; cited from earlier work.
Assay [7] relates to endothelial nitric oxide synthase (eNOS). As to conditions: Wu et al., 2005; Lin et al., 2006; cited from earlier work.
In assay [8] the test system is MMP-9. The experiment in a line: Western blot of MMP-9 protein expression in rat hearts. Type of assay: in vivo. As to conditions: Western blot densitometry, n=9-10, FIG. 5a.
Assay [9] concerns MI rats. The experiment in a line: Echocardiography 4 weeks post-surgery in MI rats (LVEDD, LVESD, fractional shortening). The class given is in vivo, rat. The note with it: KMUP-3 for 4 weeks, FIG. 2. The source says: MI is induced by ligation of the left anterior descending (LAD) coronary artery according to Liang et al., 2006. […] The LAD is ligated with 6.0 silk at 2 mm from the origin, and the wound is closed with primary suture. After the operation, the animals are observed until fully conscious. Sham animals undergo similar thoracotomy and pericardiotomy, except that the ligature around the coronary artery is not tied. Surviving rats are fitted with ALZET osmotic minipumps (Model 2ML4, DURECT Corporation, Cupertino, Calif., USA) immediately after recovery. At this time, most of the rats are still anaesthetized from the previously administered pentobarbital sodium; a further bolus dose of pentobarbital sodium (15 mg·kg^−1) is given if necessary. […] In the treatment group, the minimumps are filled with hydrochloride of KMUP-3 (KMUP-3·HCl; 0.3 mg·kg^−1·day^−1). In the sham and MI groups, the minipumps are filled with saline.

Where [10] appears, read: KMUP-3·HCl 0.3 mg·kg−1·day−1 by osmotic minipump, 4 weeks, n=10.

In the case of `COC(=O)[C@@H](N)CCCNC(=N)N[N+](=O)[O-]` [L-NAME, N^ω-nitro-L-arginine methyl ester, reference compound], in the assay with MMP-9 [1] (L-NAME 100 mmol·L−1 with KMUP-3 10 mmol·L−1, TGF-β 10 ng·mL−1, FIG. 6a), the “Effect of eNOS inhibitor pretreatment on KMUP-3 inhibition of MMP-9 expression in HCFs” value is given as “reverses the inhibition of MMP-9 expression”.

`Cn1c(=O)c2c(ncn2CCN2CCN(c3ccccc3Cl)CC2)n(C)c1=O` [KMUP-1, 7-[2-[4-(2-chlorobenzene)piperazinyl]ethyl]-1,3-dimethylxanthine]: in the assay on hypertensive rats, the “Cardioprotection, cardiac hypertrophy and fibrosis, in words” value is “therapeutic effect on the cardioprotection in hypertensive rats, the reducing of the cardiac hypertrophy and fibrosis”.

As for `Cn1c(=O)c2c(ncn2CCN2CCN(c3ccc([N+](=O)[O-])cc3)CC2)n(C)c1=O` [KMUP-3, 7-[2-[4-(4-nitrobenzene)-piperazinyl]ethyl]-1,3-dimethylxanthine], the “Cardiac fibrosis in central-infarct and peri-infarct areas” value with MI rats [2] (n=10, FIG. 4a-b) was “attenuates cardiac fibrosis”. In the assay on MI rats [2] (n=10, FIG. 4c), the “Percentage of fibrosis in non-infarcted area” value is listed as “comparable with that of the sham-operated hearts”. Also, the “TIMP-1 expression in MI rat hearts” value in the assay on TIMP-1 [3] is on record as “increases significantly”. In the assay with TIMP-1 [4], the “TIMP-1 expression in HCFs” value was “significantly enhanced”. Besides, in the assay with MI rats [5] (Evans blue staining, n=5, FIG. 3a), the “Area of risk after coronary artery ligature” value is recorded as “no difference between treatment groups”. Moreover, the “Infarction size (infarct area of LV)” value with MI rats [5] (TTC staining, MI rats after KMUP-3 treatment, n=10, MI group 47.4±3.7%, P<0.05) is on record as 33.6±1.7%. For the same molecule, the “eNOS expression in MI rat hearts” value in the assay on eNOS is recorded as “increases significantly”. Besides, the “Cardiac systolic function (LV+dP/dt), in words” value with MI rats [6] (0.3 mg·kg−1·day−1 for 4 weeks) is given as “improved cardiac systolic function”. Also, the “Cardiac remodelling (hypertrophy, heart weight to body weight ratio), in words” value in the assay with MI rats [6] (KMUP-3 treatment 4 weeks) is “prevents the cardiac remodelling process”. Also, in the assay with MI rats [6] (setting [10]), the “HR (heart rate)” value came to 421 ± 5 bpm, the “HW (heart weight)” value is recorded as 1219 ± 39 mg, the HW/BW was 2.72 ± 0.04 mg/g and the “LV +dP/dt” value worked out at 7637 ± 333 mmHg/s. Besides, in the assay on MI rats [6] (setting [10]), the “LV −dP/dt” value was −5379 ± 441 mmHg/s, the LVEDP was 12.6 ± 2.3 mmHg and the LVSP worked out at 140.6 ± 4.2 mmHg. For the same molecule, the “Heart rate change, in words” value in the assay on MI rats [6] (after KMUP-3 treatment, not statistically significant) is given as “small increase in heart rate”. Also, in the assay on aortic smooth muscle, the “Aortic smooth muscle relaxation, in words” value was “may induce aortic smooth muscle relaxation”. In addition, in the assay with phosphodiesterase, the “Phosphodiesterase inhibitor potency, in words” value was “more potent than KMUP-1”. In addition, in assay [7], the “eNOS in HUVECs, in words” value was “enhance endothelial nitric oxide synthase (eNOS)”. Further, the “MMP-9 expression in HCFs” value with MMP-9 [1] (KMUP-3 10 mmol·L−1, 1 h before TGF-β 10 ng·mL−1 for 24 h, FIG. 6a) was “attenuates the expression of MMP-9”. The “MMP-9 expression in MI rat hearts” value in the assay with MMP-9 [8] was “decreases MMP-9 expression”. Moreover, the “Cardiac remodeling and dysfunction by echocardiography (LVEDD, LVESD, FS), in words” value in the assay on MI rats [9] is “cardiac remodeling and dysfunction may be prevented”.
